Measured values reported in patent US20260092085A1, “SYNTHETIC TRIPLEX PEPTIDE NUCLEIC ACID-BASED INHIBITORS FOR CANCER THERAPY” (University of Connecticut, priority 2022, published 2026).

Experiments:
[1] = tested on: U2932 tumors; assay: Immunostaining of Caspase-3 and Ki67 in treated U2932 tumors; assay type: in vivo, NSG mice; details: U2932 xenograft
Procedure: FIGS. 17A-D show in vivo studies in U2932 derived xenograft model. (17A) Biodistribution of γtcPNA-155 TAMRA in tumor sections (17B) Tumor volume fold change (n=6, data represented as mean±standard error mean (SEM), *p<0.05, **p<0.01, multiple t-tests one per row was used for statistical analysis). Asterisk denotes the analysis was performed relative to Scr-γtcPNA-155. Diamond symbol denotes the analysis was performed relative to PNA-155. (17C) Representative images showing the effects of Scr-γtcPNA-155, PNA-155, γPNA-155 and γtcPNA-155 on Caspase-3 immunostaining of tumor (magnification; ×20). Autofluorescence (AF) at 514 nm was used to show the tumor. Scale bar=[…]. (17D) Caspase-3 immunostaining quantification, *p<0.05. n=15. The n indicates the number of images.
FIGS. 21A-B show Ki-67 immunostaining (21A) and quantification (21B) in the in vivo treated tumors (n=15), **p<0.01. The n indicates the number of images. Scale bar=50 μm.
Histopathology and immunohistochemistry; The mice were sacrificed by CO2 inhalation when tumor volume reached 2000 mm^3. The tumor and vital organs (e.g., liver, kidney, spleen, lungs, heart) were carefully isolated, weighed, and fixed in the 10% NBF solution. The sections ([…]) of formalin-fixed paraffin-embedded liver and kidney were stained by hematoxylin and eosin for the histological analysis. […]

[2] = tested on: miR-155; assay: Gel shift binding assay (PAGE, SYBR Gold)
Procedure: (1D) Dose-dependent gel shift binding assay of target miR-155 ([…]) with PNA-155 and γtcPNA-155 at indicated concentrations. The samples were prepared in the physiological buffer (2 mM MgCl2, 150 mM KCl, 10 mM NaPi) and incubated for 24 hours at physiological temperature (37° C.) followed by PAGE separation and visualization of bands by SYBr® Gold staining. […] (iii) γtcPNA-155 binding with the target miR-155 by Watson Crick and Hoogsteen base pairing. (iv) γtcPNA-155 binding with the miR-155 by Watson-Crick base pairing. (v) Clamp segment of γtcPNA-155 binding with the target miR-155 by Hoogsteen base pairing.
Gel shift assay: Different concentration of PNA-155 or gamma tcPNA-155 were made in physiological buffer (2 mM MgCl2, 150 mM KCl, 10 mM NaPi) and incubated overnight at 37° C. with 1 μM DNA-155 target. The samples were run through 8% Polyacrylamide gel electrophoresis (PAGE) gel in IX TBE buffer at 120 volts for 35 mins. The gel was stained with SyBr Gold for two mins and visualized using Gel Doc™ EZ Imager (Bio-rad). […]
Next, we evaluated the binding affinity of γtcPNA-155 and PNA-155 with the miR-155 target by polyacrylamide gel electrophoresis (PAGE) based protocols (FIG. 1D). We incubated PNA-155 and γtcPNA-155 with miR-155 at indicated concentrations in physiological buffer and temperature and assessed the binding by PAGE followed by SYBR gold staining. […]

[3] = tested on: SUDHL-5 cells; assay: Cell viability by trypan blue assay, SUDHL-5; assay type: cell-based
Procedure: Cell viability was performed using trypan blue-based assay (n=3 technical triplicate), data represented as mean±(SEM), * represents the statistical analysis were performed relative to Scr-γtcPNA-155 and ♦ represent analysis performed relative to PNA-155. *p<0.05, **p<0.01, ***p<0.001 and ****p<0.0001, ♦p<0.05, ♦♦p<0.01, unpaired two-tailed t-test was used for statistical analysis. The experiment was repeated three times and in triplicate.
Cell viability was performed using trypan blue-based assay (n=3), data represented as mean±standard error mean (SEM), *p<0.05, **p<0.01. Unpaired two-tailed t-test was used for statistical analysis.
Cell viability was performed using trypan blue-based assay (n=3), data represented as mean±standard error mean (SEM).
Cell viability by trypan blue assay: Diffused large B cell lymphoma (DLBCL) cell lines like SUDHL-2 (ATCC® CRL-2956™) and SUDHL-5 (ATCC® CRL-2958™) cells were purchased from ATCC (Virginia, USA). The cells were regularly tested for Mycoplasma contamination using MycoAlert™ Mycoplasma detection kit (Lonza). All the cells used in the experiment were passaged less than 8 times. 10,000 U2932, SUDHL-5, or SUDHL-2 cells were plated in a 96 well plate. The cells were treated with different doses (500 nM, 1000 nM, 2000 nM and 4000 nM) of PNA-155, gamma tcPNA-155 or Scr-γtcPNA-155 for 48 hrs in an incubator (37° C. and 5% CO2). The dead cells were marked with trypan blue. Further counting was performed using an automated cell counter (Bio-rad).

γtcPNA-155: serine gamma tail-clamp anti-miR-155 PNA, RR-TJJJJ-OOO-ACCCCTATCACGATTAGCATTAA-RR, SEQ ID NO: 3 (all peptide nucleic acid (PNA); serine gamma PNA, tail-clamp TJJJJ via linkers, Arg-Arg at both ends)
Caspase-3 positive cells in tumor sections [1]: increase
Ki67 positive cells in tumor sections [1]: significant decrease
binding affinity with miR-155 target (comparison) [2]: stronger binding affinity compared to regular PNA-155
reduction in cell viability at 500 nM ([3]; SUDHL-5, 500 nM, compared to PNA-155 treated group): significant reduction in cell viability
decrease in cell viability ([3]; SUDHL-5, 4UM, 48 hours): ~80%
